{"source": "patent EP4775577A1", "about": "“RAS INHIBITOR” (Tyligand Bioscience (Shanghai) Limited, priority 2023, dated 2025)", "test_in_all_cases": "Ba/F3 KRAS-mutant cell proliferation inhibition (CellCounting-Lite 2.0)", "format_in_all_cases": "cell-based", "key": {"Ba/F3-KRAS-G12C-H95L": {"tested_on": "Ba/F3-KRAS-G12C-H95L", "conditions": "Mus musculus, BaF3, Ba/F3-KRAS-G12C-H95L (KC-3683), 72 h", "excerpt": "(§1) This experiment evaluated the proliferation inhibitory activity of the compounds of the present invention against Ba/F3-KRAS mutant cell lines by using the CellCounting-Lite®2.0 method.\n(§2) The following materials, reagents, and instruments were used in this experiment: Cells were all obtained from Kangyuan Bochuang Biotechnology (Beijing) Co., Ltd. RPMI-1640 (Hyclone, SH30809.01); fetal bovine serum (FBS) was used. (GIBCO, 10099-141); Phosphate-buffered saline (PBS) (Solarbio, P1020-500); CellCounting-Lite 2.0 Luminescent Cell Viability Assay (Vazyme, DD1101-02); 96-well plate (Absin, abs7016); Multifunctional microplate reader (BMG LABTECH, CLARIOstar® Plus); CO2 incubator (Thermo Scientific, Model 3100 Series).\n(§3) All cell lines were cultured in complete medium at 37°C and 5% CO2. Cells in the logarithmic growth phase were harvested and counted using a platelet counter. Cell viability was assessed using the trypan blue exclusion method to ensure a viability of over 90%. Cell density was adjusted using complete medium (RPMI 1640+10% FBS) and then seeded into 96-well cell culture plates at 90 µL per well, for a total of 3000 cells. The cells in the 96-well plates were cultured at 37°C and 5% CO2. A 10-fold drug solution was prepared using complete medium, and then 10 µL of each serially diluted compound was transferred to the corresponding wells of the 96-well cell culture plate, with two replicates for each drug concentration. The cells in the drug-treated 96-well plates were cultured at 37°C and 5% CO2 for 72 h, followed by CellCounting-Lite 2.0 analysis.\n(§4) The CellCounting-Lite 2.0 Luminescent Cell Viability Assay reagent was thawed and the cell plate was equilibrated to room temperature for 30 minutes. An equal volume of CellCounting-Lite 2.0 Luminescent Cell Viability Assay solution was added to each well and the plate was shaken on an orbital shaker for 5 minutes to lyse the cells. The cell plate was placed at room temperature for 20 minutes to stabilize the cryo-luminescence signal. The cryo-luminescence values were read and the data were collected.\n(§5) Data was analyzed using GraphPad Prism 7.0 software. A nonlinear S-curve regression was used to fit the data to derive the dose-response curve, and the IC50 value was calculated from this curve. [formula]"}, "Ba/F3-KRAS-G 12V": {"tested_on": "Ba/F3-KRAS-G 12V", "conditions": "Mus musculus, BaF3, Ba/F3-KRAS-G 12V (KC-1261), 72 h", "excerpt": "as §1, §2, §3, §4, §5"}, "Ba/F3-KRAS-G12C-Q99L": {"tested_on": "Ba/F3-KRAS-G12C-Q99L", "conditions": "Mus musculus, BaF3, Ba/F3-KRAS-G12C-Q99L (KC-2611), 72 h", "excerpt": "as §1, §2, §3, §4, §5"}, "Ba/F3-KRAS-G12C-A59S": {"tested_on": "Ba/F3-KRAS-G12C-A59S", "conditions": "Mus musculus, BaF3, Ba/F3-KRAS-G12C-A59S (KC-2605), 72 h", "excerpt": "as §1, §2, §3, §4, §5"}, "Ba/F3-KRAS-G12C-A59T": {"tested_on": "Ba/F3-KRAS-G12C-A59T", "conditions": "Mus musculus, BaF3, Ba/F3-KRAS-G12C-A59T (KC-2610), 72 h", "excerpt": "as §1, §2, §3, §4, §5"}, "Ba/F3-KRAS-G13D": {"tested_on": "Ba/F3-KRAS-G13D", "conditions": "Mus musculus, BaF3, Ba/F3-KRAS-G13D (KC-1436), 72 h", "excerpt": "as §1, §2, §3, §4, §5"}, "Ba/F3-KRAS-G12S": {"tested_on": "Ba/F3-KRAS-G12S", "conditions": "Mus musculus, BaF3, Ba/F3-KRAS-G12S (KC-2894), 72 h", "excerpt": "as §1, §2, §3, §4, §5"}, "Ba/F3-KRAS-G12C-Y96S": {"tested_on": "Ba/F3-KRAS-G12C-Y96S", "conditions": "Mus musculus, BaF3, Ba/F3-KRAS-G12C-Y96S (KC-2619), 72 h", "excerpt": "as §1, §2, §3, §4, §5"}, "Ba/F3-KRAS-G12D": {"tested_on": "Ba/F3-KRAS-G12D", "conditions": "Mus musculus, BaF3, Ba/F3-KRAS-G12D (KC-1259), 72 h", "excerpt": "as §1, §2, §3, §4, §5"}, "Ba/F3-KRAS-G12C-R68M": {"tested_on": "Ba/F3-KRAS-G12C-R68M", "conditions": "Mus musculus, BaF3, Ba/F3-KRAS-G12C-R68M (KC-2604), 72 h", "excerpt": "as §1, §2, §3, §4, §5"}, "Ba/F3-KRAS-Q61H": {"tested_on": "Ba/F3-KRAS-Q61H", "conditions": "Mus musculus, BaF3, Ba/F3-KRAS-Q61H (KC-2620), 72 h", "excerpt": "as §1, §2, §3, §4, §5"}, "Ba/F3-KRAS-G12C-H95R": {"tested_on": "Ba/F3-KRAS-G12C-H95R", "conditions": "Mus musculus, BaF3, Ba/F3-KRAS-G12C-H95R (KC-2618), 72 h", "excerpt": "as §1, §2, §3, §4, §5"}, "Ba/F3-KRAS-G12R": {"tested_on": "Ba/F3-KRAS-G12R", "conditions": "Mus musculus, BaF3, Ba/F3-KRAS-G12R (KC-2026), 72 h", "excerpt": "as §1, §2, §3, §4, §5"}, "[1]": {"conditions": "0.05uM, read-out: Inhibition rate% @0.05uM"}, "[2]": {"conditions": "1uM, read-out: Inhibition rate% @1uM"}}, "data": [{"smiles": "CCN1CC/C(=C\\F)[C@](C)(COc2nc(N3Cc4c(COC)c(C(=O)N(C)C)nn4CC[C@@H]3C)c3cc(Cl)c(-c4c(F)ccc5sc(N)c(C#N)c45)c(F)c3n2)C1", "note": "(single isomer, unassigned) [Example 228A]", "values": [{"measurement": "inhibition at 0.05 µM", "setting": "Ba/F3-KRAS-G12C-H95L; [1]", "value": 99.7, "unit": "%"}, {"measurement": "inhibition at 1 µM", "setting": "Ba/F3-KRAS-G12C-H95L; [2]", "value": 100, "unit": "%"}, {"measurement": "inhibition at 0.05 µM", "setting": "Ba/F3-KRAS-G 12V; [1]", "value": 99.9, "unit": "%"}, {"measurement": "inhibition at 1 µM", "setting": "Ba/F3-KRAS-G 12V; [2]", "value": 100, "unit": "%"}, {"measurement": "inhibition at 0.05 µM", "setting": "Ba/F3-KRAS-G12C-Q99L; [1]", "value": 93.9, "unit": "%"}, {"measurement": "inhibition at 1 µM", "setting": "Ba/F3-KRAS-G12C-Q99L; [2]", "value": 98.1, "unit": "%"}, {"measurement": "inhibition at 0.05 µM", "setting": "Ba/F3-KRAS-G12C-A59S; [1]", "value": 83.3, "unit": "%"}, {"measurement": "inhibition at 1 µM", "setting": "Ba/F3-KRAS-G12C-A59S; [2]", "value": 97.4, "unit": "%"}, {"measurement": "inhibition at 0.05 µM", "setting": "Ba/F3-KRAS-G12C-A59T; [1]", "value": 79.8, "unit": "%"}, {"measurement": "inhibition at 1 µM", "setting": "Ba/F3-KRAS-G12C-A59T; [2]", "value": 95.1, "unit": "%"}, {"measurement": "inhibition at 0.05 µM", "setting": "Ba/F3-KRAS-G13D; [1]", "value": 88.1, "unit": "%"}, {"measurement": "inhibition at 1 µM", "setting": "Ba/F3-KRAS-G13D; [2]", "value": 98.2, "unit": "%"}, {"measurement": "inhibition at 0.05 µM", "setting": "Ba/F3-KRAS-G12S; [1]", "value": 96.4, "unit": "%"}, {"measurement": "inhibition at 1 µM", "setting": "Ba/F3-KRAS-G12S; [2]", "value": 98.8, "unit": "%"}, {"measurement": "inhibition at 0.05 µM", "setting": "Ba/F3-KRAS-G12C-Y96S; [1]", "value": 45.4, "unit": "%"}, {"measurement": "inhibition at 1 µM", "setting": "Ba/F3-KRAS-G12C-Y96S; [2]", "value": 74.9, "unit": "%"}, {"measurement": "inhibition at 0.05 µM", "setting": "Ba/F3-KRAS-G12D; [1]", "value": 99.5, "unit": "%"}, {"measurement": "inhibition at 1 µM", "setting": "Ba/F3-KRAS-G12D; [2]", "value": 99.8, "unit": "%"}, {"measurement": "inhibition at 0.05 µM", "setting": "Ba/F3-KRAS-G12C-R68M; [1]", "value": 91.6, "unit": "%"}, {"measurement": "inhibition at 1 µM", "setting": "Ba/F3-KRAS-G12C-R68M; [2]", "value": 96.6, "unit": "%"}, {"measurement": "inhibition at 0.05 µM", "setting": "Ba/F3-KRAS-Q61H; [1]", "value": 99.1, "unit": "%"}, {"measurement": "inhibition at 1 µM", "setting": "Ba/F3-KRAS-Q61H; [2]", "value": 99.6, "unit": "%"}, {"measurement": "inhibition at 0.05 µM", "setting": "Ba/F3-KRAS-G12C-H95R; [1]", "value": 71.9, "unit": "%"}, {"measurement": "inhibition at 1 µM", "setting": "Ba/F3-KRAS-G12C-H95R; [2]", "value": 98.6, "unit": "%"}, {"measurement": "inhibition at 0.05 µM", "setting": "Ba/F3-KRAS-G12R; [1]", "value": 85.7, "unit": "%"}, {"measurement": "inhibition at 1 µM", "setting": "Ba/F3-KRAS-G12R; [2]", "value": 97.6, "unit": "%"}]}]}
